The values that follow come from paper PMC4807248 (The Journal of Biological Chemistry, 2016).

Bounds are passed on as bounds.

Assay [1] deals with T1, PqsBC (Pseudomonas aeruginosa, UniProt Q9I4X1, C129A).
T1 construct: gene pqsC
The assay is described as follows: biochemical.

Assay [2] deals with T2, PqsBC (Pseudomonas aeruginosa, UniProt Q9I4X1, H269A).
T2 construct: gene pqsC
The assay is described as follows: biochemical.

In assay [3] the target is T3, PqsBC (Pseudomonas aeruginosa, UniProt Q9I4X1, V299N).
T3 construct: gene pqsC
The assay is described as follows: biochemical.

In assay [4] the target is T4, PqsBC (Pseudomonas aeruginosa, UniProt Q9I4X1, C129S).
T4 construct: gene pqsC
The assay can be described thus: biochemical.

In another assay the target is T5, PqsC^C129A (P. aeruginosa PAO1, UniProt Q9I4X1 2-348, C129A).
T5 construct: also called PqsC subunit of PqsBC^C129A
T5 sequence: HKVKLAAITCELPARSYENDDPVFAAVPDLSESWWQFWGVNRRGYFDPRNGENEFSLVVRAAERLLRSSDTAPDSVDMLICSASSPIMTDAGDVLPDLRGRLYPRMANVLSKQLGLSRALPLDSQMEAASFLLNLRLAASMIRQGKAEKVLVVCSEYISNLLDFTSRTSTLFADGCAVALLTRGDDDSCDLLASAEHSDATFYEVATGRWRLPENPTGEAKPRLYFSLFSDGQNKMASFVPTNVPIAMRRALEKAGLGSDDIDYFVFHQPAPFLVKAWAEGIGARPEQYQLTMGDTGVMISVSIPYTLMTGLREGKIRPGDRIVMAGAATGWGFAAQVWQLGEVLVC
The assay can be described thus: crystal structure; PqsBC^C129A crystallised in 25% PEG 3350, 0.1 M Tris pH 8.3, 0.2 M NaCl; 2.0 Å; four copies of PqsB and four of PqsC in the asymmetric unit. Particulars: both partners purified.

T2 sequence (Q9I4X1 whole entry, stated change not applied, one chain of several): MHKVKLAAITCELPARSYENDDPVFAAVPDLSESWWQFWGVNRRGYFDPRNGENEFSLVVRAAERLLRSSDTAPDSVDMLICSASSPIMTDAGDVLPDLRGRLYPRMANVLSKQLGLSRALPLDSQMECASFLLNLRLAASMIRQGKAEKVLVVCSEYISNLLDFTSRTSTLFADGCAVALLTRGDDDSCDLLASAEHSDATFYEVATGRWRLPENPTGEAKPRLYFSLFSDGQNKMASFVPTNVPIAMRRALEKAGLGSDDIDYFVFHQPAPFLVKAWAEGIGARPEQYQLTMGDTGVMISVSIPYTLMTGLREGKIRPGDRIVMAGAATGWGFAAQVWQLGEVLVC
T4 sequence (Q9I4X1 whole entry, stated change not applied, one chain of several): as above
T3 sequence (Q9I4X1 whole entry, stated change not applied, one chain of several): as above
T1 sequence (Q9I4X1 whole entry, stated change not applied, one chain of several): as above

Broadly, the Kd is the concentration at which binding is half-saturated. Lower therefore signals tighter binding. For the molecule `CC(=O)c1ccccc1N` [2-aminoacetophenone], the Kd was 158 ± 12 µM on PqsBC [1], 117 ± 6 µM at PqsBC [2], over 1000 µM at PqsBC [3] and 170 ± 10 µM at PqsBC [4].

Turning to `Nc1ccccc1C(=O)CC(=O)O` [2-aminobenzoylacetate], the Kd is 330 ± 30 µM at PqsBC [1], 198 ± 11 µM at PqsBC [2], over 1000 µM on PqsBC [3] and 411 ± 43 µM at PqsBC [4].

B1: PqsB (natural protein)
chain: MLIQAVGVNLPPSYVCLEGPLGGERPRAQGDEMLMQRLLPAVREALDEAAVKPEEIDLIVGLALSPDHLIENRDIMAPKIGHPLQKVLGANRAHVFDLTDSSLARALYVVDTLASDQGYRNVLVVRGESSQGLEVDSESGFALADGALALLCRPTGKAAFRRGALGGDPAQEWLPLSIPLNTDIRQVGDVKGHLNLPAQPGLPEAVRAGFTRLAGDFPQLNWVREEWFGQGRPDGRCLGPFELASQLRAAQRDRLDELLLISFDPFGMVVEGVTLELAGEAHA
notes: also called PqsB subunit of PqsBC
Take B1: the binding result in the assay with PqsC^C129A is “binds”.
